pIC50: −log10 of the molar value.
molecular target: T1, CYCLIN K (Homo sapiens, UniProt O75909); test: CYCLIN K nuclear protein level: immunofluorescence/high content analysis in CAL-120 cells; assay type: cell-based; conditions: 24 h, nuclear CCNK staining intensity, median, read-out: CYCLIN K degradation IF, DC50- [mol/l] (median)
T1 construct: endogenous in cells; host or cells: CAL-120 human breast cancer cells (DSMZ ACC 459)
Protocol: 7. CYCLIN K Nuclear Protein Level: Immunofluorescence/High Content Analysis
In the context of the present invention, the term “DC50 Cyclin K” refers to the DC50 values obtained according to the assay described in this section (7) herein below, i.e. the DC50 values for the degradation of Cyclin K.
CAL-120 human breast cancer cells (DSMZ ACC 459) are seeded in 1536-well microtiter plates (800 cells per well) containing 50 nanoL of compounds in Dose-Response. Control wells received DMSO or Reference Example 1. Plates are then incubated for 24 h at 37° C. in an humidified incubator and fixed with 4% PFA for 10 min. Then immunofluorescence (IF) against CYCLIN K (ThermoFisher Scientific CCNK Antibody # PA5-85020, rabbit, 1:200 dilution) is performed using standard IF protocols. Cells are then stained with Hoechst 33342 (Life Technologies, H-1399, 0.1 microg/mL) and imaged on an automated confocal microscopy system (e.g. Perkin Elmer Opera Phenix). Nuclear and cytoplasmic intensity as well as the nuclear/cytoplasmic intensity ratio is determined by automated image analysis using custom generated scripts (MetaXpress). Data is then transferred to Genedata Screener software, normalized to DMSO and control and DC50 values (degrading concentration to achieve 50% reduction of nuclear CCNK staining intensity relative to controls) are reported.

T1 sequence (O75909 whole entry): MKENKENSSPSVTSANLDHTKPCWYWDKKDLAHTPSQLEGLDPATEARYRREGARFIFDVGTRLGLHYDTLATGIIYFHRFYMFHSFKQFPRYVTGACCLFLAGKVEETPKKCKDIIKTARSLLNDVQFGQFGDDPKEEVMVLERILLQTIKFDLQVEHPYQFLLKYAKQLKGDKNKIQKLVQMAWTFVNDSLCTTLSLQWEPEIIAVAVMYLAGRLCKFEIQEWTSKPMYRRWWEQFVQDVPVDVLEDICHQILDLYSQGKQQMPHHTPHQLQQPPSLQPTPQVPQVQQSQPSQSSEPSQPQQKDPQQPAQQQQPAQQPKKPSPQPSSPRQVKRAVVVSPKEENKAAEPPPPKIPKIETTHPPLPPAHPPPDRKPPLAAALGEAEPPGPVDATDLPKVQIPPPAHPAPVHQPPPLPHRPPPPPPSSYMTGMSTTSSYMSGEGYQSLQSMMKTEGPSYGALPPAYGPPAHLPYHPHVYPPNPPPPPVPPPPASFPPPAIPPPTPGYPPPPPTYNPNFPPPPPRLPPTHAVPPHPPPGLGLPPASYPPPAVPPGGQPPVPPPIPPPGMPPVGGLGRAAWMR
T1 sequence (Q9NYV4 whole entry partner): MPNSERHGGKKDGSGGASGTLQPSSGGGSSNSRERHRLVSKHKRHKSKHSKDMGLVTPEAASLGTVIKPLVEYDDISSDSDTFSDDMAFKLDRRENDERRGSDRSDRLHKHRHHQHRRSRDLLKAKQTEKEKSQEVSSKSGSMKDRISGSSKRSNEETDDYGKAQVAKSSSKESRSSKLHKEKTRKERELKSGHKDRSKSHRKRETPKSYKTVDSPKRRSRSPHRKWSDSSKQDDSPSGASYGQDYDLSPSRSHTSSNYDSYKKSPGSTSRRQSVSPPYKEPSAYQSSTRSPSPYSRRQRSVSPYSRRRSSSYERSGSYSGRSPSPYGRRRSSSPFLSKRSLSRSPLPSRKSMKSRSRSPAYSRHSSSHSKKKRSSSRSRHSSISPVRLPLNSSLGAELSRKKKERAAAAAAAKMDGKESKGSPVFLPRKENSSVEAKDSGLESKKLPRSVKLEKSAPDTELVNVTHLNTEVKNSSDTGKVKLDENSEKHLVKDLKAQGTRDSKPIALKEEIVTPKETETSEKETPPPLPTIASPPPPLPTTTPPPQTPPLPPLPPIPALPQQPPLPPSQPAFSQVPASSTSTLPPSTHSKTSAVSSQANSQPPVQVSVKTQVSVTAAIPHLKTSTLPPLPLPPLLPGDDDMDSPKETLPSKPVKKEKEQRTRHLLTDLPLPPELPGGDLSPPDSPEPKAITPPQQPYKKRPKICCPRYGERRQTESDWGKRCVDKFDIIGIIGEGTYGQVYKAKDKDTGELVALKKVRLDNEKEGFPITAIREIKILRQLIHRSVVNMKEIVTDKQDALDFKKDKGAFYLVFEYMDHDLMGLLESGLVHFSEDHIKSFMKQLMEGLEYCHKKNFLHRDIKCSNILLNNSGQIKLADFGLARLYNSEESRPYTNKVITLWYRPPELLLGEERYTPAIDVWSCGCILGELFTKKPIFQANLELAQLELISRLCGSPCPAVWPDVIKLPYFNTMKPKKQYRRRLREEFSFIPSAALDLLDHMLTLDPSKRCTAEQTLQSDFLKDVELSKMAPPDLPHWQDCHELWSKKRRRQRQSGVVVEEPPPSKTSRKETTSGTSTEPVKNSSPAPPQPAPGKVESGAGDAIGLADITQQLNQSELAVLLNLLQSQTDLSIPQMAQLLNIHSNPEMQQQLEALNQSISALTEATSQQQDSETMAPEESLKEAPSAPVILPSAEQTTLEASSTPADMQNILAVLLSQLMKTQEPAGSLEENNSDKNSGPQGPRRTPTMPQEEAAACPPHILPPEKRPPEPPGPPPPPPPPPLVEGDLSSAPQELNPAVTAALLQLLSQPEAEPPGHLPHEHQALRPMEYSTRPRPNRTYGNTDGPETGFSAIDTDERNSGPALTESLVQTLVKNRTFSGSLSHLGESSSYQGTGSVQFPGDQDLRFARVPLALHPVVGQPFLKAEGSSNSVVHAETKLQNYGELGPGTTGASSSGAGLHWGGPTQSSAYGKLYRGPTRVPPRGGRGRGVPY

| SMILES | DC50 [nM] |
| --- | --- |
| O[C@H]1C[C@@H](Cn2nc(NCc3nc4ccccc4[nH]3)c3ncc(C4CC4)nc32)C1 [Example 71, cis-3-[(3-{[(1H-benzimidazol-2-yl)methyl]amino}-6-cyclopropyl-1H-pyrazolo[3,4-b]pyrazin-1-yl)methyl]cyclobutan-1-ol] | 8.83 |
| COCCC(C)n1nc(NCc2nc3ccccc3[nH]2)c2ncc(C3CC3)nc21 (single isomer, unassigned; (+)) [Example 59, (+)-N-[(1H-benzimidazol-2-yl)methyl]-6-cyclopropyl-1-[4-methoxybutan-2-yl]-1H-pyrazolo[3,4-b]pyrazin-3-amine] | 38.6 |
| c1ccc2[nH]c(CNc3nn(C4C[C@H]5CC[C@@H](C4)O5)c4nc(C5CC5)cnc34)nc2c1 (stereo partly drawn) [Example 45, exo/endo-N-[(1H-benzimidazol-2-yl)methyl]-6-cyclopropyl-1-(8-oxabicyclo[3.2.1]octan-3-yl)-1H-pyrazolo[3,4-b]pyrazin-3-amine] | 2.29 |
| Cc1cccc2[nH]c(CNc3nn(C4CCN(C)CC4)c4nc(C5CC5)cnc34)nc12 [Example 8, 6-cyclopropyl-N-[(4-methyl-1H-benzimidazol-2-yl)methyl]-1-(1-methylpiperidin-4-yl)-1H-pyrazolo[3,4-b]pyrazin-3-amine] | 6.22 |
| O[C@H]1CC[C@@H](n2nc(NCc3nc4ccccc4[nH]3)c3ncc(C4CC4)nc32)CC1 [Example 51, cis-4-(3-{[(1H-benzimidazol-2-yl)methyl]amino}-6-cyclopropyl-1H-pyrazolo[3,4-b]pyrazin-1-yl)cyclohexan-1-ol] | 4.46 |
| O[C@H]1CC[C@H](n2nc(NCc3nc4cc(F)ccc4[nH]3)c3ncc(C4CC4)nc32)CC1 [Example 56, trans-4-(6-cyclopropyl-3-{[(5-fluoro-1H-benzimidazol-2-yl)methyl]amino}-1H-pyrazolo[3,4-b]pyrazin-1-yl)cyclohexan-1-ol] | 1.28 |
| Cc1ccc2[nH]c(CNc3nn(C4CCN(C)CC4)c4nc(C5CC5)cnc34)nc2c1 [Example 6, 6-cyclopropyl-N-[(5-methyl-1H-benzimidazol-2-yl)methyl]-1-(1-methylpiperidin-4-yl)-1H-pyrazolo[3,4-b]pyrazin-3-amine] | 0.263 |
| CC1(C)CC(n2nc(NCc3nc4ccccc4[nH]3)c3ncc(C4CC4)nc32)CC(C)(C)O1 [Example 52, N-[(1H-benzimidazol-2-yl)methyl]-6-cyclopropyl-1-(2,2,6,6-tetramethyloxan-4-yl)-1H-pyrazolo[3,4-b]pyrazin-3-amine] | 92.6 |
| c1ccc2[nH]c(CNc3nn(C4CC5(COC5)C4)c4nc(C5CC5)cnc34)nc2c1 [Example 54, N-[(1H-benzimidazol-2-yl)methyl]-6-cyclopropyl-1-(2-oxaspiro[3.3]heptan-6-yl)-1H-pyrazolo[3,4-b]pyrazin-3-amine] | 3.31 |
| c1ccc2[nH]c(CNc3nn(C4COC4)c4nc(C5CC5)cnc34)nc2c1 [Example 55, N-[(1H-benzimidazol-2-yl)methyl]-6-cyclopropyl-1-(oxetan-3-yl)-1H-pyrazolo[3,4-b]pyrazin-3-amine] | 12.5 |

system: MDA-MB-231 human breast cancer cells; test: Proliferation assay MDA-MB-231 (crystal violet); assay type: cell-based; conditions: Homo sapiens, MDA-MB-231, 96 h, MDA-MB-231 cells, 4 days, median, read-out: Prolif-MDA MB231 IC50 - [mol/l] (median)
Protocol: 4. Proliferation assay: MDA-MB-231, CAL-120
Human tumour cells were originally obtained from the American Type Culture Collection (ATCC), or from the Deutsche Sammlung von Mikroorganismen and Zellkulturen (DSMZ, German Collection of Microorganisms and Cell Cultures). Cultivated tumour cells (CAL-120, human breast adenocarcinoma cells, DSMZ ACC-459; MDA-M B-231, human breast cancer cells, ATCC HTB-26) were plated at a density of 4,000 cells/well in a 96-well multititer plate in 200 microL of their respective growth medium supplemented 10% fetal calf serum. After 24 hours, the cells of one plate (zero-point plate) were stained with crystal violet (see below), while the medium of the other plates was supplemented with the test substances in various concentrations (0 micromol/L, as well as in the range of 0.01-10 micromol/L; the final concentration of the solvent dimethyl sulfoxide was adjusted to 0.1%) using a Tecan HP D300 Digital Dispenser. The cells were incubated for 4 days in the presence of test substances. Cell proliferation was determined by staining the cells with crystal violet: the cells were fixed by adding 20 microL/measuring point of an 11% glutaric aldehyde solution for 15 minutes at room temperature. After three washing cycles of the fixed cells with water, the plates were dried at room temperature. The cells were stained by adding 100 microL/measuring point of a 0.1% crystal violet solution (pH 3.0). After three washing cycles of the stained cells with water, the plates were dried at room temperature. The dye was dissolved by adding 100 microL/measuring point of a 10% acetic acid solution. The extinction was determined by photometry at a wavelength of 595 nm. The change of cell number, in percent, was calculated by normalization of the measured values to the extinction values of the zero-point plate(=0%) and the extinction of the untreated (0 μM) cells(=100%). The IC50 values (inhibitory concentration at 50% of maximal effect) were determined by means of a 4 parameter fit.

| SMILES | pIC50 |
| --- | --- |
| O[C@H]1C[C@@H](Cn2nc(NCc3nc4ccccc4[nH]3)c3ncc(C4CC4)nc32)C1 [Example 71, cis-3-[(3-{[(1H-benzimidazol-2-yl)methyl]amino}-6-cyclopropyl-1H-pyrazolo[3,4-b]pyrazin-1-yl)methyl]cyclobutan-1-ol] | 7.15 |
| c1ccc2[nH]c(CNc3nn(C4C[C@H]5CC[C@@H](C4)O5)c4nc(C5CC5)cnc34)nc2c1 (stereo partly drawn) [Example 45, exo/endo-N-[(1H-benzimidazol-2-yl)methyl]-6-cyclopropyl-1-(8-oxabicyclo[3.2.1]octan-3-yl)-1H-pyrazolo[3,4-b]pyrazin-3-amine] | 7.77 |
| Cc1cccc2[nH]c(CNc3nn(C4CCN(C)CC4)c4nc(C5CC5)cnc34)nc12 [Example 8, 6-cyclopropyl-N-[(4-methyl-1H-benzimidazol-2-yl)methyl]-1-(1-methylpiperidin-4-yl)-1H-pyrazolo[3,4-b]pyrazin-3-amine] | 7.40 |
| CN1CCC(n2nc(NCc3nc4cc(Cl)ccc4[nH]3)c3ncc(C4CC4)nc32)CC1 [Example 22, N-[(5-chloro-1H-benzimidazol-2-yl)methyl]-6-cyclopropyl-1-(1-methylpiperidin-4-yl)-1H-pyrazolo[3,4-b]pyrazin-3-amine] | 8.10 |
| OCCCn1nc(NCc2nc3ccccc3[nH]2)c2ncc(C3CC3)nc21 [Example 60, 3-(3-{[(1H-benzimidazol-2-yl)methyl]amino}-6-cyclopropyl-1H-pyrazolo[3,4-b]pyrazin-1-yl)propan-1-ol] | 6.63 |
| CN1CCC(n2nc(NCc3nc4c(Cl)c(F)ccc4[nH]3)c3ncc(C4CC4)nc32)CC1 [Example 31, N-[(4-chloro-5-fluoro-1H-benzimidazol-2-yl)methyl]-6-cyclopropyl-1-(1-methylpiperidin-4-yl)-1H-pyrazolo[3,4-b]pyrazin-3-amine] | 7.74 |
| Cc1c(F)ccc2[nH]c(CNc3nn(C4CCN(C)CC4)c4nc(C5CC5)cnc34)nc12 [Example 26, 6-cyclopropyl-N-[(5-fluoro-4-methyl-1H-benzimidazol-2-yl)methyl]-1-(1-methylpiperidin-4-yl)-1H-pyrazolo[3,4-b]pyrazin-3-amine] | 7.65 |
| CN1CCC(n2nc(NCc3nc4cc(Cl)c(F)cc4[nH]3)c3ncc(C4CC4)nc32)CC1 [Example 29, N-[(5-chloro-6-fluoro-1H-benzimidazol-2-yl)methyl]-6-cyclopropyl-1-(1-methylpiperidin-4-yl)-1H-pyrazolo[3,4-b]pyrazin-3-amine] | 7.84 |
| CC(C)(C)OC(=O)N1CCC(n2nc(NCc3nc4ccccc4[nH]3)c3ncc(C4CC4)nc32)CC1 [Example 11, tert-butyl 4-(3-{[(1H-benzimidazol-2-yl)methyl]amino}-6-cyclopropyl-1H-pyrazolo[3,4-b]pyrazin-1-yl)piperidine-1-carboxylate] | 6.75 |
| FC1(F)CCC(n2nc(NCc3nc4ccccc4[nH]3)c3ncc(C4CC4)nc32)CC1 [Example 36, N-[(1H-benzimidazol-2-yl)methyl]-6-cyclopropyl-1-(4,4-difluorocyclohexyl)-1H-pyrazolo[3,4-b]pyrazin-3-amine] | 6.94 |
| COCCCn1nc(NCc2nc3ccccc3[nH]2)c2ncc(C3CC3)nc21 [Example 61, N-[(1H-benzimidazol-2-yl)methyl]-6-cyclopropyl-1-(3-methoxypropyl)-1H-pyrazolo[3,4-b]pyrazin-3-amine] | 6.47 |
| CN1CCC(n2nc(NCc3nc4cc(F)c(F)cc4[nH]3)c3ncc(C4CC4)nc32)CC1 [Example 30, 6-cyclopropyl-N-[(5,6-difluoro-1H-benzimidazol-2-yl)methyl]-1-(1-methylpiperidin-4-yl)-1H-pyrazolo[3,4-b]pyrazin-3-amine] | 7.52 |

same assay, conditions: MDA-MB-231 cells, 4 days, median, read-out: Prolif-MDA MB231 IC50 - [mol/l] (median)

| SMILES | pIC50 |
| --- | --- |
| COCCC(C)n1nc(NCc2nc3ccccc3[nH]2)c2ncc(C3CC3)nc21 (single isomer, unassigned; (+)) [Example 59, (+)-N-[(1H-benzimidazol-2-yl)methyl]-6-cyclopropyl-1-[4-methoxybutan-2-yl]-1H-pyrazolo[3,4-b]pyrazin-3-amine] | 6.09 |
| CC(CCN(C)C)n1nc(NCc2nc3ccccc3[nH]2)c2ncc(C3CC3)nc21 (single isomer, unassigned) [Example 63, (+) or (−)-N-[(1H-benzimidazol-2-yl)methyl]-6-cyclopropyl-1-[4-(dimethylamino)butan-2-yl]-1H-pyrazolo[3,4-b]pyrazin-3-amine] | 5.75 |
| CN1CCCC(n2nc(NCc3nc4ccccc4[nH]3)c3ncc(C4CC4)nc32)CC1 (single isomer, unassigned) [Example 38, (−) or (+)-N-[(1H-benzimidazol-2-yl)methyl]-6-cyclopropyl-1-[(4R*)-1-methylazepan-4-yl]-1H-pyrazolo[3,4-b]pyrazin-3-amine] | 7.33 |
| CN1CCC(n2nc(NCc3nc4ccccc4[nH]3)c3ncc(C4CC4)nc32)C1 (single isomer, unassigned) [Example 79, (−) or (+)-N-[(1H-benzimidazol-2-yl)methyl]-6-cyclopropyl-1-(1-methylpyrrolidin-3-yl)-1H-pyrazolo[3,4-b]pyrazin-3-amine] | 6.66 |
| c1ccc2[nH]c(CNc3nn(C4CCOC4)c4nc(C5CC5)cnc34)nc2c1 (single isomer, unassigned) [Example 18, (-) or (+) -N-[(1H-benzimidazol-2-yl)methyl]-6-cyclopropyl-1-[oxolan-3-yl]-1H-pyrazolo[3,4-b]pyrazin-3-amine] | 6.82 |

Source: patent US20230192700A1, “PYRAZOLOPYRAZINES ACTING ON CANCERS VIA INHIBITION OF CDK12” (Bayer Aktiengesellschaft, priority 2020, published 2023)
